Data on three molecules can be found in patent EP4671251A1, “SALTS OF COMPOUNDS, CRYSTAL FORMS THEREOF, PREPARATION METHOD THEREFOR AND USE THEREOF” (TenNor Therapeutics (Suzhou) Limited, priority 2023, dated 2024).

Format in all cases: physicochemical
The nature of series [1]: Stability test, open conditions at 25 °C/60% RH and 40 °C/75% RH for 3 days. The settings on record: for Change in appearance / Change in crystal form / Purity: 3 days. The procedure:
Samples were separately taken from two crystal forms I and II of the monotriphenylacetate salt of the exemplary compound of formula (II) and left to stand in open conditions at 25 °C/60% RH and 40 °C/75% RH for 3 days.
Table 4. Summary of stability study data

The nature of series [2]: Hygroscopicity test (dynamic vapor sorption, DVS). The text has this:
The DVS results of the crystal form I (FIG. 12A) show slow weight gains from 0 to 60% RH and 70% RH to 95% RH, and a rapid weight gain from 60% RH to 70% RH.

Series [3] is described as follows: Kinetic solubility in water and four biological media at 37 °C. The settings on record: for S: Solubility / solubility at 1 h / solubility at 4 h / solubility at 24 h: about 10 mg/mL sample added; for S: Solubility: LOQ = 0.099 µg/mL; for solubility at 1 h / solubility at 4 h / solubility at 24 h: read-out: S: Solubility; for FC: change in appearance: solid by XRPD; for pH: supernatant. The procedure: About 10 mg/mL of sample (on a free base basis) was added to various biological media. After shaking at 100 rpm at 37 °C (for 1/4/24 h), samples 01-05 were centrifuged, and the solids were collected for XRPD test, while the supernatant was used for detection and pH measurement.
Table 9. Kinetic solubility of crystal form I in water and four biological media at 37 °C (mg/mL)

Series [4] is described as follows: Acceleration stability test at 40 °C and 75% humidity, one month. Here is the method: The commercially available amorphous form of rifabutin and the crystal forms V and VI of the present application were separately placed in a constant-temperature and constant-humidity incubator at 40 °C and 75% humidity for acceleration test. After one month, the change in purity was determined.

Series [5] in a line: Approximate solubility of the starting free base at room temperature. The settings on record: room temperature (about 25 °C). Here is the method: The approximate solubility of the starting free base of the exemplary compound of formula (II) in 5 single solvents and 9 mixed solvents at room temperature (about 25 °C) was also tested. Table 1. Approximate solubility (mg/mL) of the starting free base at room temperature

≈ marks a conversion by molar mass, not a printed value. Where a name gives a salt, the structure may show the parent alone. Read-outs that look alike come from different tables or passages of the source.

For the molecule `CO[C@H]1/C=C/O[C@@]2(C)Oc3c(C)c(O)c4c(c3C2=O)C2=NC3(CCN(CCn5c([N+](=O)[O-])cnc5C)CC3)NC2=C(NC(=O)/C(C)=C\C=C\[C@H](C)[C@H](O)[C@@H](C)[C@@H](O)[C@@H](C)[C@H](OC(C)=O)[C@@H]1C)C4=O` [Crystal form I of triphenylacetate salt], the Change in appearance result in series [1] (25 °C/60% RH Open) and in series [1] (40 °C/75% RH Open) was “No change” throughout. Also, the “Change in crystal form” value in series [1] (25 °C/60% RH Open) and in series [1] (40 °C/75% RH Open) was “No change” each time. Further, the Purity was 98.09 Area% in series [1] (25 °C/60% RH Open) and 98.22 Area% in series [1] (40 °C/75% RH Open). For the same molecule, in series [1] (starting sample, before storage), the “Starting sample Purity” value was found to be 97.23 Area%. This molecule displayed a water absorption in series [2] (25 °C/80% RH (relative to 0% RH), about 1 H2O) of 1.5%. Moreover, the hygroscopicity entry in series [2] (DVS, 25 °C/80% RH) is “slightly hygroscopic”. Also, the “change in appearance of crystal form before/after DVS evaluation (XRPD)” value in series [2] (before/after DVS) is on record as “no change”. Besides, the “S: Solubility” value in series [3] (Water, 1 h) is “<LOQ”; in series [3] (Water, 4 h), “<LOQ”; in series [3] (Water, 24 h), “<LOQ”. For the same molecule, the solubility at 1 h in series [3] (fassgf, pH 1.6, FaSSGF (1.6), 1 h) amounted to 1300 µg/mL; in series [3] (fassif, pH 6.5, FaSSIF (6.5), 1 h), 12 µg/mL; in series [3] (fessgf, pH 5, FeSSGF (5.0), 1 h), 120 µg/mL; in series [3] (fessif, pH 5, FeSSIF (5.0), 1 h), 120 µg/mL. The solubility at 4 h came to 1600 µg/mL in series [3] (fassgf, pH 1.6, FaSSGF (1.6), 4 h); 5.7 µg/mL in series [3] (fassif, pH 6.5, FaSSIF (6.5), 4 h); 180 µg/mL in series [3] (fessgf, pH 5, FeSSGF (5.0), 4 h); 120 µg/mL in series [3] (fessif, pH 5, FeSSIF (5.0), 4 h). Moreover, the solubility at 24 h in series [3] (fassgf, pH 1.6, FaSSGF (1.6), 24 h) is ~1600 µg/mL; in series [3] (fassif, pH 6.5, FaSSIF (6.5), 24 h) it was 7.5 µg/mL; in series [3] (fessgf, pH 5, FeSSGF (5.0), 24 h), 220 µg/mL; in series [3] (fessif, pH 5, FeSSIF (5.0), 24 h), 140 µg/mL. The “FC: change in appearance” value in series [3] (FaSSGF (1.6), 1 h) is “No”; in series [3] (FaSSGF (1.6), 4 h) it was “No”; in series [3] (FaSSGF (1.6), 24 h) it was “No”; in series [3] (FaSSIF (6.5), 1 h), “No”; in series [3] (FaSSIF (6.5), 4 h), “No”; in series [3] (FaSSIF (6.5), 24 h) it was “No”. Besides, the “FC: change in appearance” value in series [3] (FeSSGF (5.0), 1 h) is reported as “No”; in series [3] (FeSSGF (5.0), 4 h), “No”; in series [3] (FeSSGF (5.0), 24 h), “No”; in series [3] (FeSSIF (5.0), 1 h), “No”; in series [3] (FeSSIF (5.0), 4 h) it was “No”; in series [3] (FeSSIF (5.0), 24 h), “No”. For the same molecule, the “FC: change in appearance” value in series [3] (Water, 1 h) is listed as “No”; in series [3] (Water, 4 h) it was “No”; in series [3] (Water, 24 h) it was “No”. Also, the pH in series [3] (FaSSGF (1.6), 1 h) is 1.55; in series [3] (FaSSGF (1.6), 4 h) it was 1.57; in series [3] (FaSSGF (1.6), 24 h), 1.54; in series [3] (FaSSIF (6.5), 1 h), 6.37; in series [3] (FaSSIF (6.5), 4 h) it was 6.37; in series [3] (FaSSIF (6.5), 24 h), 6.40. In addition, the pH in series [3] (FeSSGF (5.0), 1 h) worked out at 5.03; in series [3] (FeSSGF (5.0), 4 h), 5.07; in series [3] (FeSSGF (5.0), 24 h), 5.07; in series [3] (FeSSIF (5.0), 1 h), 4.85; in series [3] (FeSSIF (5.0), 4 h), 4.84; in series [3] (FeSSIF (5.0), 24 h), 4.84. The pH in series [3] (Water, 1 h) turned out to be 4.45; in series [3] (Water, 4 h), 4.44; in series [3] (Water, 24 h), 4.62.
Consider `CO[C@H]1/C=C/O[C@@]2(C)Oc3c(C)c(O)c4c(c3C2=O)C2=NC3(CCN(CC(C)C)CC3)NC2=C(NC(=O)/C(C)=C\C=C\[C@H](C)[C@H](O)[C@@H](C)[C@@H](O)[C@@H](C)[C@H](OC(C)=O)[C@@H]1C)C4=O` [amorphous product of rifabutin, rifabutin], for which the Purity in series [4] (after one month at 40 °C and 75% humidity) is listed as 95.54%. Also, in series [4] (original sample, before storage), the “purity of the original sample” value is 95.9%.
On to `CO[C@H]1/C=C/O[C@@]2(C)Oc3c(C)c(O)c4c(c3C2=O)C2=NC3(CCN(CCn5c([N+](=O)[O-])cnc5C)CC3)NC2=C(NC(=O)/C(C)=C\C=C\[C@H](C)[C@H](O)[C@@H](C)[C@@H](O)[C@@H](C)[C@H](OC(C)=O)[C@@H]1C)C4=O` [starting free base], for which the solubility in series [5] (2-MeTHF) was > 41400 µg/mL; in series [5] (2-MeTHF:MTBE (1:1) v:v), > 42400 µg/mL; in series [5] (EtOAc) it was > 40800 µg/mL; in series [5] (EtOAc:MTBE (1:1) v:v), > 41400 µg/mL; in series [5] (IPA), > 39200 µg/mL; in series [5] (IPA:H2O (1:1) v:v) it was 20500 to 41000 µg/mL (≈ 21.7 to 43.4 mM). The solubility in series [5] (IPA:H2O (3:1) v:v) is > 41200 µg/mL; in series [5] (IPA:H2O (5:1) v:v), > 41200 µg/mL; in series [5] (IPA:H2O (9:1) v:v), > 41400 µg/mL; in series [5] (IPA:H2O (19:1) v:v) it was > 42200 µg/mL; in series [5] (IPA:n-Heptane (1:1) v:v) it was 20700 to 41400 µg/mL (≈ 21.9 to 43.9 mM); in series [5] (MTBE), 6700 to 20100 µg/mL (≈ 7.1 to 21.3 mM). For the same molecule, the solubility was > 41400 µg/mL in series [5] (Toluene) and > 42400 µg/mL in series [5] (Toluene:MTBE (1:1) v:v).

What is called solubility is the concentration that dissolves in the medium under given conditions.
